Data taken from patent US8697694B2, “Substituted pyridine and pyrimidine derivatives and their use in treating viral infections” (priority 2008, dated 2014).

System: HCV replicon cells
Assay: Cell-based HCV replicon assay (replicon RNA level by real time PCR, Taqman)
Conditions: Hepatitis C virus, 72 h, HCV replicon cells, harvested day 3, replicon RNA by real time PCR; given as number; read-out: EC90 (μM) range
How it was run: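 Readout: ΔCT between NS5B replicon RNA and GAPDH by real-time RT-PCR in lysates harvested on day 3, fitted sigmoidally; EC50 at ΔCT=1, EC90 at ΔCT=3.2. Compounds tested at ten 2-fold dilutions from 25 μM to 1 μM start, 10% FBS, 0.5% DMSO.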

Compound | EC90
Cc1nc(NCC2CC2)nc(N[C@@H]2C[C@H](CO)[C@@H](O)[C@H]2O)c1-c1cc2cc(OC(C)C)nc(C)c2o1 [Example 39] | 0.1 µM
CCOc1cc2cc(-c3c(C)nc(N[C@H](C)C4CC4)nc3N[C@@H]3C[C@H](CO)[C@@H](O)[C@H]3O)oc2c(C)n1 [Example 41] | 0.2 µM
COc1cc(CNc2nc(C)c(-c3cc4cc(OCC5CC5)ncc4o3)c(N[C@@H]3C[C@H](CO)[C@@H](O)[C@H]3O)n2)cc(OC)c1 [Example 56] | 0.06 µM
CCOc1cc2cc(-c3c(C)nc(NCc4cc(OC)cc(OC)c4)nc3N[C@@H]3C[C@H](CO)[C@@H](O)[C@H]3O)oc2c(C)n1 [Example 36] | 0.01 µM
CCOc1cc2cc(-c3c(C)nc(NCC4CC4)nc3N[C@@H]3C[C@H](CO)[C@@H](O)C3)oc2c(C)n1 [Example 52] | 0.3 µM

Same assay, conditions: Hepatitis C virus, 72 h, HCV replicon cells, harvested day 3, replicon RNA by real time PCR; reported as range class; read-out: EC90 (μM) range

Compound | EC90
Cc1ccc2oc(-c3c(Cl)nc(N)nc3N[C@@H]3C[C@H](CO)[C@@H](O)[C@H]3O)cc2n1 [Example 16] | 0.5 to 5 µM
Nc1nc(Cl)c(-c2cc3cnc(=O)[nH]c3o2)c(N[C@@H]2C[C@H](CO)[C@@H](O)[C@H]2O)n1 [Example 307] | > 5 µM
Nc1nc(Cl)c(-c2cc3ccc(C(=O)N4CCOCC4)cc3o2)c(N[C@@H]2C[C@H](CO)[C@@H](O)[C@H]2O)n1 [Example 179] | > 5 µM
Nc1nc(Cl)c(-c2cscn2)c(N[C@@H]2C[C@H](CO)[C@@H](O)[C@H]2O)n1 [Example 161] | > 5 µM
Nc1nc(Cl)c(-c2cc3c(F)cncc3o2)c(N[C@@H]2C[C@H](CO)[C@@H](O)[C@H]2O)n1 [Example 303] | 0.5 to 5 µM
Cc1nc(NCCF)nc(N[C@@H]2C[C@H](CO)[C@@H](O)[C@H]2O)c1-c1nc2ccccc2s1 [Example 216] | 0.5 to 5 µM
CN(C)c1nc(Cl)c(-c2nc3ccccc3o2)c(N[C@@H]2C[C@H](CO)[C@@H](O)[C@H]2O)n1 [Example 117] | 0.5 to 5 µM
Nc1ncc(-c2cc3ccncc3o2)c(N[C@@H]2C[C@H](CO)[C@@H](O)[C@H]2O)n1 [Example 113] | 0.5 to 5 µM
Nc1nc(Cl)c(-c2cc3cc(C(F)(F)F)ccc3o2)c(N[C@@H]2C[C@H](CO)[C@@H](O)[C@H]2O)n1 [Example 108] | > 5 µM
COC[C@H]1C[C@@H](Nc2nc(N(C)C)nc(C)c2-c2nc3ccccc3s2)[C@H](O)[C@@H]1O [Example 123] | > 5 µM

Same assay, conditions: Hepatitis C virus, 72 h, HCV replicon cells, harvested on day 3, replicon RNA by real time PCR; calculated EC90 reported as range class; read-out: EC90 (μM) range

Compound | EC90
COC[C@H](C)Nc1nc(Cl)c(-c2nc3ccccc3s2)c(N[C@@H]2C[C@H](CO)[C@@H](O)[C@H]2O)n1 [Example 438] | < 0.5 µM
COCCNc1nc(C)c(-c2cc3cc(C(F)(F)F)ncc3o2)c(N[C@@H]2C[C@H](CO)[C@@H](O)[C@H]2O)n1 [Example 139] | 0.5 to 5 µM
CCc1cc2cc(-c3c(C)nc(NCC4CC4)nc3N[C@@H]3C[C@H](CO)[C@@H](O)[C@H]3O)oc2cn1 [Example 509] | < 0.5 µM
Cc1ccc(CNc2nc(C)c(-c3nc4ccccc4s3)c(N[C@@H]3C[C@H](CO)[C@H]4OC(C)(C)O[C@H]43)n2)cc1 [Example 489] | 0.5 to 5 µM
Cc1cccnc1CNc1nc(C)c(-c2nc3ccccc3s2)c(N[C@@H]2C[C@H](CO)[C@H]3OC(C)(C)O[C@H]32)n1 [Example 498] | > 5 µM
Cc1nc(NCCN2CCOCC2)nc(N[C@@H]2C[C@H](CO)[C@@H](O)[C@H]2O)c1-c1nc2ccccc2s1 [Example 252] | < 0.5 µM
CCOC(=O)NCCNc1nc(C)c(-c2nc3ccccc3s2)c(N[C@@H]2C[C@H](CO)[C@H]3OC(C)(C)O[C@H]32)n1 [Example 255] | < 0.5 µM
Cc1nc(NCc2ccco2)nc(N[C@@H]2C[C@H](CO)[C@H]3OC(C)(C)O[C@H]32)c1-c1nc2ccccc2s1 [Example 469] | < 0.5 µM
Cc1nc(NCC2CC2)nc(N[C@@H]2C[C@H](CO)[C@@H](O)[C@H]2O)c1-c1nc2cnccc2s1 [Example 523] | < 0.5 µM
Cc1nc(NCc2cccs2)nc(N[C@@H]2C[C@H](CO)[C@H]3OC(C)(C)O[C@H]32)c1-c1nc2ccccc2s1 [Example 328] | < 0.5 µM
C[C@H](Nc1nc(Cl)c(-c2nc3ccccc3s2)c(N[C@@H]2C[C@H](CO)[C@@H](O)[C@H]2O)n1)C(F)(F)F [Example 131] | < 0.5 µM
Cc1nc(NCCN2CCOCC2)nc(N[C@@H]2C[C@H](CO)[C@H]3OC(C)(C)O[C@H]32)c1-c1nc2ccccc2s1 [Example 248] | < 0.5 µM
OC[C@H]1C[C@@H](Nc2nc(NCC(F)(F)F)nc(C3CC3)c2-c2nc3ccccc3s2)[C@H](O)[C@@H]1O [Example 128] | > 5 µM
Cc1nc(NCc2ncccn2)nc(N[C@@H]2C[C@H](CO)[C@@H](O)[C@H]2O)c1-c1nc2ccccc2s1 [Example 717] | < 0.5 µM
COCc1cc2cc(-c3c(C)nc(NCC(C)(C)C)nc3N[C@@H]3C[C@H](CO)[C@H]4OC(C)(C)O[C@H]43)oc2cn1 [Example 714] | 0.5 to 5 µM
Cc1nc(NCCc2ccccc2)nc(N[C@@H]2C[C@H](CO)[C@@H](O)[C@H]2O)c1-c1nc2ccccc2s1 [Example 445] | < 0.5 µM

Same assay, conditions: Hepatitis C virus, 72 h, HCV replicon cells, replicon RNA level by real time PCR (Taqman), day 3; calculated EC90; read-out: EC90 (μM) range

Compound | EC90
COc1cc(CCNc2nc(C)c(-c3nc4cnccc4s3)c(N[C@@H]3C[C@H](CO)[C@@H](O)[C@H]3O)n2)cc(OC)c1 [Example 2010] | < 0.5 µM
Cc1nc(NCC(F)(F)F)nc(N[C@@H]2C[C@H](CO)[C@H]3OC(C)(C)O[C@H]32)c1-c1nc2cnccc2o1 [Example 2002] | > 5 µM

Same assay, conditions: Hepatitis C virus, 72 h, HCV replicon cells, replicon RNA level by real time PCR (Taqman), harvested on day 3; calculated EC90 reported as range class; read-out: EC90 (μM) range

Compound | EC90
Cc1nc(NCC(F)(F)F)nc(N[C@@H]2C[C@H](CO)[C@@H](O)[C@H]2O)c1-c1nc2cnccc2s1 [Example 532] | < 0.5 µM
CCOCCNc1nc(C)c(-c2ccc3ccccc3n2)c(N[C@@H]2C[C@H](CO)[C@@H](O)[C@H]2O)n1 [Example 1324] | > 5 µM
Cc1nc(NCc2cccs2)nc(N[C@@H]2CC[C@@H](O)[C@H]2O)c1-c1nc2cnccc2s1 [Example 1214] | < 0.5 µM
CCOCCNc1nc(C)c(-c2nc3cc(OC(F)F)c(OC(F)F)cc3s2)c(N[C@@H]2C[C@H](CO)[C@@H](O)[C@H]2O)n1 [Example 1002] | 0.5 to 5 µM
Cc1nc(NCc2ccccc2O)nc(N[C@@H]2C[C@H](CO)[C@@H](O)[C@H]2O)c1-c1nc2ccccc2s1 [Example 1220] | < 0.5 µM
COCCCCNc1nc(C)c(-c2nc3cnccc3s2)c(N[C@@H]2C[C@H](CO)[C@@H](O)[C@H]2O)n1 [Example 1050] | < 0.5 µM
COc1cnccc1Nc1nc(C)c(-c2nc3ccccc3s2)c(N[C@@H]2C[C@H](CO)[C@H]3OC(C)(C)O[C@H]32)n1 [Example 1130] | > 5 µM
COc1cccc(OC)c1Nc1nc(C)c(-c2nc3ccccc3s2)c(N[C@@H]2C[C@H](CO)[C@@H](O)[C@H]2O)n1 [Example 1125] | > 5 µM
Cc1nc(NC(C)(C)c2ccccc2)nc(N[C@@H]2C[C@H](CO)[C@@H](O)[C@H]2O)c1-c1nc2ccccc2s1 [Example 1228] | 0.5 to 5 µM
COc1cc(OC)cc(C(C)Nc2nc(C)c(-c3nc4cnccc4s3)c(N[C@@H]3C[C@H](CO)[C@@H](O)[C@H]3O)n2)c1 (some centres unmarked) [Example 1306] | < 0.5 µM
Cc1nc(NCc2ccccc2)nc(N[C@@H]2C[C@H](CO)[C@@H](O)[C@H]2O)c1-c1nc2cnccc2s1 [Example 540] | < 0.5 µM
Cc1nc(NCc2cccs2)nc(N[C@@H]2C[C@H](CN)[C@@H](O)[C@H]2O)c1-c1nc2ccccc2s1 [Example 1328] | < 0.5 µM
Cc1nc(N(C)Cc2ccccc2)nc(N[C@@H]2C[C@H](CO)[C@@H](O)[C@H]2O)c1-c1nc2cnccc2s1 [Example 1313] | 0.5 to 5 µM

Same assay, conditions: Hepatitis C virus, 72 h, HCV replicon cells, replicon RNA level by real time PCR, harvested day 3; read-out: EC90 (μM) range

Compound | EC90
Cc1nc(NCC(F)(F)F)nc(N[C@@H]2C[C@H](CNS(=O)(=O)CC(F)(F)F)[C@@H](O)[C@H]2O)c1-c1nc2ccccc2s1 [Example 1520] | 0.5 to 5 µM
Cc1nc(N[C@H](C)C2CC2)nc(N[C@@H]2CC[C@@H](O)[C@@]2(C)O)c1-c1nc2cnccc2s1 [Example 1811] | < 0.5 µM
Cc1cc(NCC2CC2)nc(N[C@@H]2C[C@H](CO)[C@@H](O)[C@H]2O)c1-c1nc2ccccc2s1 [Example 1616] | > 5 µM
CCc1ccc([C@@H](C)Nc2nc(C)c(-c3nc4c(C)nccc4s3)c(N[C@@H]3C[C@H](CO)[C@@H](O)[C@H]3O)n2)cc1 [Example 1526] | < 0.5 µM
Cc1nc(NCC2CC2)nc(N[C@@H]2CC[C@@H](O)[C@@]2(C)O)c1-c1nc2cnccc2s1 [Example 1704] | < 0.5 µM
Cc1nc(N[C@H](C)c2ccc(OC(F)(F)F)cc2)nc(N[C@@H]2C[C@@H](C(C)O)[C@@H](O)[C@H]2O)c1-c1nc2cnccc2s1 (some centres unmarked) [Example 1652] | < 0.5 µM
Cc1nc(N[C@@H](c2ccc(-n3cccn3)cc2)C(F)(F)F)nc(N[C@@H]2C[C@H](CO)[C@@H](O)[C@H]2O)c1-c1nc2c(C)nccc2s1 [Example 1541] | < 0.5 µM
Cc1nc(NC2CC2)nc(N[C@@H]2C[C@H](C(C)O)[C@@H](O)[C@H]2O)c1-c1nc2c(C)nccc2s1 (some centres unmarked) [Example 1398] | < 0.5 µM
Cc1nc(NCC2CC2)nc(N[C@@H]2C[C@H](CO)[C@@H](O)[C@H]2O)c1-c1cc2ccccc2s1 [Example 1603] | > 5 µM
CCCc1nccc2sc(-c3c(C)nc(N[C@H](C)C4CC4)nc3N[C@@H]3C[C@H](CNS(C)(=O)=O)[C@@H](O)[C@H]3O)nc12 [Example 1387] | < 0.5 µM
Cc1nc(NCC(F)(F)F)nc(NC[C@@H]2CC2(CO)CO)c1-c1nc2ccccc2s1 [Example 1618] | 0.5 to 5 µM
Cc1nc(NCC(F)(F)F)nc(N[C@@H]2C[C@H](C)[C@@H](O)[C@H]2O)c1-c1nc2ccccc2s1 [Example 1630] | < 0.5 µM
Cc1nc(N[C@H](C)c2ccc(OC(F)(F)F)cc2)nc(N[C@@H]2C[C@H](CO)[C@@H](O)[C@@]2(C)O)c1-c1nc2cnccc2s1 [Example 1397] | < 0.5 µM
